Measured values taken from patent US12478617B2, “Lipidated peptide inhibitors of interleukin-23 receptor” (JANSSEN BIOTECH, INC., priority 2021, dated 2025).
Starred links: 1 amine or outer side, 2 acyl side, 3 side chain; linkers in the order of their positions; H or OH if unused. Positions of bridges follow the written chain, without caps; N, C: chain ends. Non-standard residues stand in square brackets, D forms with d. Residues, ends and D or L forms follow the SMILES beside them. Groups on a side chain read outwards from the residue. *: point of attachment. X4 = O=C(O)CCCCCCCCCCCCCCC(=O)NC[C@H](NC(=O)CCCCCCCCCCCCCCC(=O)O)C(=O)*; Trp(7-Me) = Cc1cccc2c(C[C@H](N)C(=O)O)c[nH]c12; C20 diacid = O=C(O)CCCCCCCCCCCCCCCCCCC(=O)*; d(γGlu) = O=C(O)[C@@H](CCC(=O)[*:2])N[*:1]; C18 diacid = O=C(O)CCCCCCCCCCCCCCCCC(=O)*; C16 diacid = O=C(O)CCCCCCCCCCCCCCC(=O)*; γGlu = O=C(O)[C@H](CCC(=O)[*:2])N[*:1]; 2Nal = N[C@@H](Cc1ccc2ccccc2c1)C(=O)O; AEF = NCCOc1ccc(C[C@H](N)C(=O)O)cc1; 3Pal = N[C@@H](Cc1cccnc1)C(=O)O; Pen = CC(C)(S)[C@H](N)C(=O)O; Thp = NC1(C(=O)O)CCOCC1; AEEA = NCCOCCOCC(=O)O; Sar = CNCC(=O)O

target: T1, IL-23R (Homo sapiens, UniProt Q5VWK5); test: IL23R Reporter Assay; format: cell-based
T1 construct: HEK293 cells containing IL-23R, IL-12RP31 and a firefly luciferase reporter gene driven by a STAT-inducible promoter (Promega); host or cells: HEK293
T1 sequence (Q5VWK5 24-629): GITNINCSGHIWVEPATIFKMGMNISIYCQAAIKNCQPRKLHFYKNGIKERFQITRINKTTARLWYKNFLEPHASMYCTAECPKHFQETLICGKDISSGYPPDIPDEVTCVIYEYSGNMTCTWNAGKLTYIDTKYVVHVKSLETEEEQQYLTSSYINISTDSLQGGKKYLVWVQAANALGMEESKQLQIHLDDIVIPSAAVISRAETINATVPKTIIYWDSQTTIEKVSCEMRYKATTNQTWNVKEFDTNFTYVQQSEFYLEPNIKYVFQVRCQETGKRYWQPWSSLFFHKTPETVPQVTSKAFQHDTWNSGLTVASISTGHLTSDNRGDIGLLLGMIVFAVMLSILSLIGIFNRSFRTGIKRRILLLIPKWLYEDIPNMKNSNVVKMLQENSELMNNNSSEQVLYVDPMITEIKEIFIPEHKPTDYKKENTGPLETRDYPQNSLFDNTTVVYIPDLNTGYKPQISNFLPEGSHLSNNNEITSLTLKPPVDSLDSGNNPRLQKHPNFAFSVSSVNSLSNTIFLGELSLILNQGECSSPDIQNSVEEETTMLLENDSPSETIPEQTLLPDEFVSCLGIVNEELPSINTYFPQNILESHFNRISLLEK
Source text: IL-23 binding to IL-23 receptors results in the activation of the Signal Transducer and Activator of Transcription 3 (STAT3) by phosphorylation and downstream signaling events. Accordingly. the ability of the inhibitors described herein to block IL-23 action can be assessed by monitoring the status of STAT3 activation in response to IL-23. This may be accomplished in reporter cell assays or in intact cells such as peripheral blood mononuclear cells (PBMCs).
Compounds were serially diluted in 100% (v/v) DMSO) and plated using an Echo acoustic dispenser (Labcyte) into 1536-well non-treated black assay plates (Corning #9146). […] After 5 h at 37° C., 5% CO2, 95% relative humidity, cells were placed at 20° C. and treated with BioGlo reagent (Promega) according to the Manufacturer's instructions. Luminescence was measured on a Pherastar FSX (BMG LabTech).

| Compound | IC50 [nM] |
| --- | --- |
| CC(=O)NCCCC[C@@H]1NC(=O)[C@H](Cc2c[nH]c3c(C)cccc23)NC(=O)[C@H]([C@@H](C)O)NC(=O)[C@H](CC(N)=O)NC(=O)[C@@H](NC(=O)[C@@H](CCCNC(=N)N)NC(C)=O)C(C)(C)SSC(C)(C)[C@@H](C(=O)N[C@@H](Cc2ccc(OCCN)cc2)C(=O)N[C@@H](Cc2ccc3ccccc3c2)C(=O)NC2(C(=O)N[C@@H](CCCCNC(=O)COCCOCCNC(=O)COCCOCCNC(=O)CC[C@@H](NC(=O)CCCCCCCCCCCCCCCCC(=O)O)C(=O)O)C(=O)N[C@@H](CC(N)=O)C(=O)N[C@@H](Cc3cccnc3)C(=O)N(C)CC(N)=O)CCOCC2)NC1=O [Example 55, MeCO-r-Pen*-N-T-7MeW-K(Ac)-Pen*-AEF-2Nal-THP-K(PEG2PEG2DgEC18OH)-N-3Pya-Sar-CONH2] (Ac-[dR][Pen]NT[Trp(7-Me)]K(Ac)[Pen][AEF][2Nal][Thp]K([AEEA-AEEA-d(γGlu)-C18 diacid])N[3Pal][Sar]-NH2; disulfide 2-7) | 0.13 |
| CC(=O)NCCCC[C@@H]1NC(=O)[C@H](Cc2c[nH]c3c(C)cccc23)NC(=O)[C@H]([C@@H](C)O)NC(=O)[C@H](CC(N)=O)NC(=O)[C@@H](NC(=O)[C@@H](CCCNC(=N)N)NC(C)=O)C(C)(C)SSC(C)(C)[C@@H](C(=O)N[C@@H](Cc2ccc(OCCN)cc2)C(=O)N[C@@H](Cc2ccc3ccccc3c2)C(=O)NC2(C(=O)N[C@@H](CCCCNC(=O)COCCOCCNC(=O)COCCOCCNC(=O)[C@@H]3CCCN3C(=O)[C@@H]3CCCN3C(=O)[C@@H]3CCCN3C(=O)CCCCCCCCCCCCCCCCC(=O)O)C(=O)N[C@@H](CC(N)=O)C(=O)N[C@@H](Cc3cccnc3)C(=O)N(C)CC(N)=O)CCOCC2)NC1=O [Example 65, MeCO-r-Pen*-N-T-7MeW-K(Ac)-Pen*-AEF-2Nal-THP-K(PEG2PEG2PPPC18OH)-N-3Pya-Sar-CONH2] (Ac-[dR][Pen]NT[Trp(7-Me)]K(Ac)[Pen][AEF][2Nal][Thp]K([AEEA-AEEA-Pro-Pro-Pro-C18 diacid])N[3Pal][Sar]-NH2; disulfide 2-7) | 0.19 |
| CC(=O)NCCCC[C@@H]1NC(=O)[C@H](Cc2c[nH]c3c(C)cccc23)NC(=O)[C@H]([C@@H](C)O)NC(=O)[C@H](CC(N)=O)NC(=O)[C@@H](NC(C)=O)C(C)(C)SSC(C)(C)[C@@H](C(=O)N[C@@H](Cc2ccc(OCCN)cc2)C(=O)N[C@@H](Cc2ccc3ccccc3c2)C(=O)NC2(C(=O)N[C@@H](CCCCNC(=O)COCCOCCNC(=O)COCCOCCNC(=O)CC[C@H](NC(=O)CCCCCCCCCCCCCCC(=O)O)C(=O)O)C(=O)N[C@@H](CC(N)=O)C(=O)N[C@@H](Cc3cccnc3)C(=O)N(C)CC(N)=O)CCOCC2)NC1=O [Example 19, MeCO-Pen*-N-T-7MeW-K(Ac)-Pen*-AEF-2Nal-THP-K(PEG2PEG2gEC16OH)-N-3Pya-Sar-CONH2] (Ac-[Pen]NT[Trp(7-Me)]K(Ac)[Pen][AEF][2Nal][Thp]K([AEEA-AEEA-γGlu-C16 diacid])N[3Pal][Sar]-NH2; disulfide 1-6) | 0.037 |
| CC(=O)NCCCC[C@@H]1NC(=O)[C@H](Cc2c[nH]c3c(C)cccc23)NC(=O)[C@H]([C@@H](C)O)NC(=O)[C@H](CC(N)=O)NC(=O)[C@@H](NC(C)=O)C(C)(C)SSC(C)(C)[C@@H](C(=O)N[C@@H](Cc2ccc(OCCN)cc2)C(=O)N[C@@H](Cc2ccc3ccccc3c2)C(=O)NC2(C(=O)N[C@@H](CCCCNC(=O)[C@H](CNC(=O)CCCCCCCCCCCCCCC(=O)O)NC(=O)CCCCCCCCCCCCCCC(=O)O)C(=O)N[C@@H](CC(N)=O)C(=O)N[C@@H](Cc3cccnc3)C(=O)N(C)CC(N)=O)CCOCC2)NC1=O [Example 114, MeCO-Pen*-N-T-7MeW-K(Ac)-Pen*-AEF-2Nal-THP-K(DAP-(C16OH)2)-N-3Pya-Sar-CONH2] (Ac-[Pen]NT[Trp(7-Me)]K(Ac)[Pen][AEF][2Nal][Thp]K(X4)N[3Pal][Sar]-NH2; disulfide 1-6) | 0.15 |
| CC(=O)NCCCC[C@@H]1NC(=O)[C@H](Cc2c[nH]c3c(C)cccc23)NC(=O)[C@H]([C@@H](C)O)NC(=O)[C@H](CC(N)=O)NC(=O)[C@@H](NC(C)=O)C(C)(C)SSC(C)(C)[C@@H](C(=O)N[C@@H](Cc2ccc(OCCN)cc2)C(=O)N[C@@H](Cc2ccc3ccccc3c2)C(=O)NC2(C(=O)N[C@@H](CCCCNC(=O)COCCOCCNC(=O)COCCOCCNC(=O)[C@H]3CCCN3C(=O)[C@H]3CCCN3C(=O)[C@H]3CCCN3C(=O)CC[C@H](NC(=O)CCCCCCCCCCCCCCCCC(=O)O)C(=O)O)C(=O)N[C@@H](CC(N)=O)C(=O)N[C@@H](Cc3cccnc3)C(=O)N(C)CC(N)=O)CCOCC2)NC1=O [Example 108, MeCO-Pen*-N-T-7MeW-K(Ac)-Pen*-AEF-2Nal-THP-K(PEG2PEG2pppgEC18OH)-N-3Pya-Sar-CONH2] | 0.15 |
| CC(=O)NCCCC[C@@H]1NC(=O)[C@H](Cc2c[nH]c3c(C)cccc23)NC(=O)[C@H]([C@@H](C)O)NC(=O)[C@H](CCCCNC(=O)COCCOCCNC(=O)COCCOCCNC(=O)[C@@H]2CCCN2C(=O)[C@@H]2CCCN2C(=O)[C@@H]2CCCN2C(=O)CC[C@H](NC(=O)CCCCCCCCCCCCCCCCC(=O)O)C(=O)O)NC(=O)[C@@H](NC(=O)[C@@H](CCCNC(=N)N)NC(C)=O)C(C)(C)SSC(C)(C)[C@@H](C(=O)N[C@@H](Cc2ccc(OCCN)cc2)C(=O)N[C@@H](Cc2ccc3ccccc3c2)C(=O)NC2(C(=O)N[C@@H](CCCCNC(C)=O)C(=O)N[C@@H](CC(N)=O)C(=O)N[C@@H](Cc3cccnc3)C(=O)N(C)CC(N)=O)CCOCC2)NC1=O [Example 99, MeCO-r-Pen*-K(PEG2PEG2PPPgEC18OH)-T-7MeW-K(Ac)-Pen*-AEF-2Nal-THP-K(Ac)-N-3Pya-Sar-CONH2] (Ac-[dR][Pen]K([AEEA-AEEA-Pro-Pro-Pro-γGlu-C18 diacid])T[Trp(7-Me)]K(Ac)[Pen][AEF][2Nal][Thp]K(Ac)N[3Pal][Sar]-NH2; disulfide 2-7) | 0.096 |
| CC(=O)NCCCC[C@@H]1NC(=O)[C@H](Cc2c[nH]c3c(C)cccc23)NC(=O)[C@H]([C@@H](C)O)NC(=O)[C@H](CC(N)=O)NC(=O)[C@@H](NC(C)=O)C(C)(C)SSC(C)(C)[C@@H](C(=O)N[C@@H](Cc2ccc(OCCN)cc2)C(=O)N[C@@H](Cc2ccc3ccccc3c2)C(=O)NC2(C(=O)N[C@@H](CCCCNC(=O)CC[C@H](NC(=O)CCCCCCCCCCCCCCCCCCC(=O)O)C(=O)O)C(=O)N[C@@H](CC(N)=O)C(=O)N[C@@H](Cc3cccnc3)C(=O)N(C)CC(N)=O)CCOCC2)NC1=O [Example 89, MeCO-Pen*-N-T-7MeW-K(Ac)-Pen*-AEF-2Nal-THP-K(gEC20OH)-N-3Pya-Sar-CONH2] (Ac-[Pen]NT[Trp(7-Me)]K(Ac)[Pen][AEF][2Nal][Thp]K([γGlu-C20 diacid])N[3Pal][Sar]-NH2; disulfide 1-6) | 0.34 |
| CC(=O)NCCCC[C@H](NC(=O)C1(NC(=O)[C@H](Cc2ccc3ccccc3c2)NC(=O)[C@H](Cc2ccc(OCCN)cc2)NC(=O)[C@H]2NC(=O)[C@H](CCCCNC(=O)COCCOCCNC(=O)COCCOCCNC(=O)CC[C@H](NC(=O)CCCCCCCCCCCCCCCCC(=O)O)C(=O)O)NC(=O)[C@H](Cc3c[nH]c4c(C)cccc34)NC(=O)[C@H]([C@@H](C)O)NC(=O)[C@H](CC(N)=O)NC(=O)[C@@H](NC(=O)[C@@H](CCCNC(=N)N)NC(C)=O)C(C)(C)SSC2(C)C)CCOCC1)C(=O)N[C@@H](CC(N)=O)C(=O)N[C@@H](Cc1cccnc1)C(=O)N(C)CC(N)=O [Example 88, MeCO-r-Pen*-N-T-7MeW-K(PEG2PEG2gEC18OH)-Pen*-AEF-2Nal-THP-K(Ac)-N-3Pya-Sar-CONH2] (Ac-[dR][Pen]NT[Trp(7-Me)]K([AEEA-AEEA-γGlu-C18 diacid])[Pen][AEF][2Nal][Thp]K(Ac)N[3Pal][Sar]-NH2; disulfide 2-7) | 0.2 |
| CC(=O)NCCCC[C@@H]1NC(=O)[C@H](Cc2c[nH]c3c(C)cccc23)NC(=O)[C@H]([C@@H](C)O)NC(=O)[C@H](CCCCNC(=O)COCCOCCNC(=O)COCCOCCNC(=O)CC[C@H](NC(=O)CCCCCCCCCCCCCCCCC(=O)O)C(=O)O)NC(=O)[C@@H](NC(=O)[C@@H](CCCNC(=N)N)NC(C)=O)C(C)(C)SSC(C)(C)[C@@H](C(=O)N[C@@H](Cc2ccc(OCCN)cc2)C(=O)N[C@@H](Cc2ccc3ccccc3c2)C(=O)NC2(C(=O)N[C@@H](CCC(=O)O)C(=O)N[C@@H](CC(N)=O)C(=O)N[C@@H](Cc3cccnc3)C(=O)N(C)CC(N)=O)CCOCC2)NC1=O [Example 20, MeCO-r-Pen*-K(PEG2PEG2gEC18OH)-T-7MeW-K(Ac)-Pen*-AEF-2Nal-THP-E-N-3Pya-Sar-CONH2] (Ac-[dR][Pen]K([AEEA-AEEA-γGlu-C18 diacid])T[Trp(7-Me)]K(Ac)[Pen][AEF][2Nal][Thp]EN[3Pal][Sar]-NH2; disulfide 2-7) | 0.067 |
